Reference: PubChem BioAssay AID330 (DTP/NCI, 2004)
Values joined by “and” are separate entries in the source; they are usually repeats but may differ in a detail not shown here. Identical values can stand only once. Toxic doses and inconclusive results are not listed. How the source made its calls: active means survival T/C of 150% or more; inactive means T/C below 125% in these data.

System: P388 leukemia ip, CD2F1 mice, survival T/C
Assay: NCI In Vivo Anticancer Drug Screen. Data for tumor model P388 Leukemia (intraperitoneal) in CD2F1 (CDF1) mice
Conditions: endpoint: median survival time, higher = longer survival
Summary of the method: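 Mice carrying the transplanted tumor received test compound or vehicle. Survival was recorded in each group, and the value is the treated-group measurement divided by that of the vehicle-treated control group.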

[1] = dose: 50.0 mg/kg/injection, schedule: Q01DX005 (ip), vehicle: saline
[2] = dose: 50.0 mg/kg/injection, schedule: Q01DX005 (ip), vehicle: Klucel (hydroxypropylcellulose) (HPC)
[3] = dose: 100.0 mg/kg/injection, schedule: Q01DX005 (ip), vehicle: Klucel (hydroxypropylcellulose) (HPC)
[4] = dose: 60.0 mg/kg/injection, schedule: Q01DX005 (ip), vehicle: Klucel (hydroxypropylcellulose) (HPC)
[5] = dose: 120.0 mg/kg/injection, schedule: Q01DX005 (ip), vehicle: Klucel (hydroxypropylcellulose) (HPC)

Measured: T/C

CCOC(=O)c1ccc(NN=NC(C)(C)C)cc1
inactive: dose: 12.5 mg/kg/injection, schedule: Q01DX009 (ip), vehicle: distilled water + Tween-80 91 % of control | dose: 25.0 mg/kg/injection, schedule: Q01DX009 (ip), vehicle: distilled water + Tween-80 93 % of control | dose: 50.0 mg/kg/injection, schedule: Q01DX009 (ip), vehicle: distilled water + Tween-80 86 % of control | dose: 100.0 mg/kg/injection, schedule: Q01DX009 (ip), vehicle: distilled water + Tween-80 93 % of control | dose: 200.0 mg/kg/injection, schedule: Q01DX009 (ip), vehicle: distilled water + Tween-80 86 % of control

C/C(=N\NC(=O)c1ccccc1)c1cccc(/C(C)=N/NC(=O)c2ccccc2)n1.CC(=O)[O-].CC(=O)[O-].[Zn+2]
inactive: dose: 100.0 mg/kg/injection, schedule: Q01DX001 (ip), vehicle: saline with Tween-80 95 % of control | dose: 200.0 mg/kg/injection, schedule: Q01DX001 (ip), vehicle: saline with Tween-80 104 % of control | dose: 400.0 mg/kg/injection, schedule: Q01DX001 (ip), vehicle: saline with Tween-80 100 % of control

CN(C)c1ccc(C(=C2C=CC(=[N+](C)c3ccccc3)c3ccccc32)c2ccc(N(C)C)cc2)cc1
inactive: dose: 1.56 mg/kg/injection, schedule: Q01DX005 (ip), vehicle: saline with Tween-80 116 % of control

COc1ccccc1OC(C)=O
inactive: dose: 50.0 mg/kg/injection, schedule: Q01DX009 (ip), vehicle: saline 97 % of control | dose: 200.0 mg/kg/injection, schedule: Q01DX009 (ip), vehicle: saline 88 % of control

Cn1c(N)c(C(=O)/C=C/c2ccccc2)c(=O)n(CCN2CCOCC2)c1=O
inactive: [1] 100 % of control | dose: 100.0 mg/kg/injection, schedule: Q01DX005 (ip), vehicle: saline 94 % of control | dose: 200.0 mg/kg/injection, schedule: Q01DX005 (ip), vehicle: saline 89 % of control

CC(C)c1cc2c(cc1O)C(O)C1(O)CCCC(C)(C)[C@H]1CC2 (stereo partly specified)
inactive: dose: 7.5 mg/kg/injection, schedule: Q01DX005 (ip), vehicle: other 104 % of control | dose: 15.0 mg/kg/injection, schedule: Q01DX005 (ip), vehicle: other 100 % of control | dose: 30.0 mg/kg/injection, schedule: Q01DX005 (ip), vehicle: other 86 % of control | dose: 60.0 mg/kg/injection, schedule: Q01DX005 (ip), vehicle: other 94 % of control

O=C([O][Hg][CH2]C1COC([CH2][Hg][O]C(=O)c2ccccc2)CO1)c1ccccc1 (stereo unspecified)
inactive: dose: 25.0 mg/kg/injection, schedule: Q01DX009 (ip), vehicle: saline with Tween-80 120 % of control | dose: 25.0 mg/kg/injection, schedule: Q04DX003 (ip), vehicle: saline with Tween-80 104 % of control | dose: 50.0 mg/kg/injection, schedule: Q01DX009 (ip), vehicle: saline with Tween-80 120 % of control | dose: 50.0 mg/kg/injection, schedule: Q04DX003 (ip), vehicle: saline with Tween-80 90 % of control | dose: 100.0 mg/kg/injection, schedule: Q04DX003 (ip), vehicle: saline with Tween-80 95 % of control

CSc1nccc(=O)n1-c1ccccc1
inactive: dose: 100.0 mg/kg/injection, schedule: Q04DX003 (ip), vehicle: Klucel (hydroxypropylcellulose) (HPC) 91 % of control | dose: 200.0 mg/kg/injection, schedule: Q04DX003 (ip), vehicle: Klucel (hydroxypropylcellulose) (HPC) 92 % of control

CCOC(=O)C1Cc2c([nH]c(=O)[nH]c2=O)OC1c1ccc([N+](=O)[O-])cc1 (stereo unspecified)
inactive: [2] 97 % of control | [3] 89 % of control | dose: 200.0 mg/kg/injection, schedule: Q01DX005 (ip), vehicle: Klucel (hydroxypropylcellulose) (HPC) 94 % of control

OCc1c(Cl)nc2n1CCS2
inactive: dose: 25.0 mg/kg/injection, schedule: Q01DX001 (ip), vehicle: saline with Tween-80 104 % of control | dose: 50.0 mg/kg/injection, schedule: Q01DX001 (ip), vehicle: saline with Tween-80 104 % of control

C=CCc1cc(OC)c(OCC=O)c(OC)c1
inactive: dose: 100.0 mg/kg/injection, schedule: Q04DX002 (ip), vehicle: Klucel (hydroxypropylcellulose) (HPC) 99 % of control | dose: 200.0 mg/kg/injection, schedule: Q04DX002 (ip), vehicle: Klucel (hydroxypropylcellulose) (HPC) 96 % of control

Clc1ccc2c(c1)[N+](=c1ccc3nc4cc(Cl)ccc4sc-3c1)c1ccccc1S2.[Cl][Cu][Cl]
inactive: [4] 95 % of control | [5] 91 % of control | dose: 240.0 mg/kg/injection, schedule: Q01DX005 (ip), vehicle: Klucel (hydroxypropylcellulose) (HPC) 88 % of control

CN(C)c1nc2c(N)ncnc2n1C1OC(CO)C(O)C1O (stereo unspecified)
inactive: dose: 12.5 mg/kg/injection, schedule: Q01DX005 (ip), vehicle: saline with Tween-80 100 % of control and 106 % of control | dose: 25.0 mg/kg/injection, schedule: Q01DX005 (ip), vehicle: saline with Tween-80 103 % of control and 106 % of control | dose: 50.0 mg/kg/injection, schedule: Q01DX005 (ip), vehicle: saline with Tween-80 112 % of control and 113 % of control | dose: 100.0 mg/kg/injection, schedule: Q01DX005 (ip), vehicle: saline with Tween-80 123 % of control

COc1cccc(Oc2cccc[n+]2CC(C)=O)c1
inactive: dose: 25.0 mg/kg/injection, schedule: Q01DX005 (ip), vehicle: saline 98 % of control | [1] 98 % of control

C=C(Cl)C(=NC(C)(C)C)Nc1ccccc1
inactive: [2] 102 % of control | [3] 92 % of control

COC(=O)[C@@]12OC[C@]34[C@H]([C@@H](O)[C@@H]1O)[C@@]1(C)[C@H](O)C(=O)C=C(C)[C@@H]1C[C@H]3OC(=O)C(OC(C)=O)[C@@H]24 (stereo partly specified)
inactive: dose: 0.1 micrograms/kg/injection, schedule: Q01DX009 (ip), vehicle: saline + alcohol 96 % of control | dose: 0.2 micrograms/kg/injection, schedule: Q01DX009 (ip), vehicle: saline + alcohol 102 % of control | dose: 0.5 micrograms/kg/injection, schedule: Q01DX009 (ip), vehicle: saline + alcohol 105 % of control | dose: 1.0 micrograms/kg/injection, schedule: Q01DX009 (ip), vehicle: saline + alcohol 93 % of control | dose: 2.0 micrograms/kg/injection, schedule: Q01DX009 (ip), vehicle: saline + alcohol 100 % of control | dose: 4.0 micrograms/kg/injection, schedule: Q01DX009 (ip), vehicle: saline + alcohol 88 % of control

N/C(=C\c1nc2ccccc2nc1-c1ccccc1)c1ccccc1Cl
inactive: [4] 100 % of control | [5] 91 % of control
